The values below are quoted from earlier work in US20020151447A1, “Reduced toxicity 1-bromopropane cleaning agent production process” (POLYMER SOLVENTS, INC., priority 1997, published 2002).

The conditions of data set [1]: 8 hour workday.
In another data set the test system is mammals. As to conditions: in vivo.

On to `CCCBr` [1-bromopropane], for which the “workplace exposure limit for handlers” value in data set [1] is reported as 100 ppm. For the same compound, the toxicity to mammals entry in the data set with mammals is “relatively low toxicity”.
